In US20090131302A1, “Transient receptor potential vanilloid 1 and uses thereof” (priority 2007, published 2009):
Entries after “also recorded” stand apart in the source; their conditions may differ.

Tests used:
TRPV1 [1] = molecular target: TRPV1 (Homo sapiens, UniProt Q8NER1); conditions: cited from earlier work
TRPV1 [2] = conditions: cited from earlier work
TRPV1 [3] = molecular target: T1, TRPV1 (Rattus norvegicus, UniProt O35433); assay: Neonatal TRPV1 antagonist pre-treatment before P10 colonic acetic acid; sensitivity to colorectal distention at 8 weeks; type: in vivo
T1 construct: endogenous in cells; host or cells: living rats (neonatal and adult); DRG and spinal cord tissue for the expression work
T1 sequence (O35433 whole entry): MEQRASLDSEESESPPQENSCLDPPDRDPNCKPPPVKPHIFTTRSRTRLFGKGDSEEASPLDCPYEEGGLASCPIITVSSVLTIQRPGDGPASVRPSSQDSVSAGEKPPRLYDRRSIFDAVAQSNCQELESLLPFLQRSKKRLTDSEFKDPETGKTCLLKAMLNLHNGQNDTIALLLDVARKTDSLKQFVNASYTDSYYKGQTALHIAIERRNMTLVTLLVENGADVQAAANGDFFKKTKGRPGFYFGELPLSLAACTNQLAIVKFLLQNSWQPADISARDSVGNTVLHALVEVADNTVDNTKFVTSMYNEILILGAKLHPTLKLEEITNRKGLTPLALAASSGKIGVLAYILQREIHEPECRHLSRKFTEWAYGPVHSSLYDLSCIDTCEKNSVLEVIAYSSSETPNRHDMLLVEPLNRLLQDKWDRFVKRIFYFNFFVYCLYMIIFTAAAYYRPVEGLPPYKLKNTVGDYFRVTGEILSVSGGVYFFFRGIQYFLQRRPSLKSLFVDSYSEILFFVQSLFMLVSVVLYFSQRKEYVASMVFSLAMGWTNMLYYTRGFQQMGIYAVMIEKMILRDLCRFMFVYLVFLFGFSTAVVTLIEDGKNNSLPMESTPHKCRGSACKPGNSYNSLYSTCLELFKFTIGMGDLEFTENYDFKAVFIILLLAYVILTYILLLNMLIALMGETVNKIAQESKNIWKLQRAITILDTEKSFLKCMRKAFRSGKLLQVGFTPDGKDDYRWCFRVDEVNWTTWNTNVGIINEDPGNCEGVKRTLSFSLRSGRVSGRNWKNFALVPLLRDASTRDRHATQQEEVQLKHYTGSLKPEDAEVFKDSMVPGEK
Protocol: (§1) In the first experiment, 3 groups of 10 neonatal rats were used. While Group 1 received SB-366791, 1.3 mg/kg subcutaneously 30 minutes prior to colonic acetic acid administration. Group 2 received vehicle subcutaneously prior to colonic acetic acid administration, and Group 3 received vehicle prior to colonic saline administration. In the second experiment, 3 groups of 10 neonatal rats were used. All rats received a drug or vehicle subcutaneously 24 hours and 30 minutes prior to colonic acetic acid administration. Group 4 received SB-366791, 2.6 mg/kg, Group 5 received I-RTX, 2 mg/kg, and Group 6 received vehicle. For both experiments, at 8 weeks of age, EMG recordings and abdominal withdrawal reflex grades were simultaneously obtained in response to graded colorectal distention. To test the effect of TRPV1 inhibitors on adults, 2 groups of 10 rats were used: on post-natal day 10, Group 7 received colonic acetic acid, Group 8 received colonic saline. At 7 weeks of age, Groups 7 and 8 were split: half of each group received SB-366791, 1.3 mg/kg, and half vehicle, subcutaneously 30 minutes prior to colorectal distention. After one week of period, vehicle and drug groups were crossed-over and sensitivity to colorectal distention was measured again.
Ten days old rat pups received TRPV1 antagonist or vehicle subcutaneously 30 minutes prior to colon acetic acid infusion and were tested for sensitivity to colorectal distention at 8 weeks of age.
Thus, antagonism of the TRPV1 prior to neonatal administration of acetic acid attenuated the development of sensitivity to colorectal distention.

[4] = test system: 50 receptors of various types; set-up: dose or concentration left out as unconfirmed; conditions: cited from earlier work
TRPV1 [5] = molecular target: T1, TRPV1; assay: TRPV1 antagonism in adult rats neonatally treated with acetic acid or saline; graded colorectal distention; type: in vivo; conditions: 1.3 mg/kg 30 minutes prior to CRD
Protocol: as §1
AWR scores of drug and vehicle treated rats as adults within each neonatal treatment group (P10 acetic acid or P10 saline) were compared at each distention pressure by Wilcoxon signed rank test.

[6] = test system: voltage-gated Ca++ currents or the hyperpolarization activated current in rat DRG neurons; conditions: at 1 mM; cited from earlier work
[7] = test system: AMPA or NMDA mediated hippocampal synaptic transmission; conditions: cited from earlier work
TRPV1 [8] = conditions: in vivo; cited from earlier work
calcium channels = conditions: at high concentrations; cited from earlier work
[9] = in vivo; cited from earlier work
TRPV1 [10] = molecular target: T2, TRPV1 (Mus musculus, UniProt Q704Y3); conditions: cited from earlier work
T2 construct: host or cells: colon and jejunal afferent fibre preparations
T2 sequence (Q704Y3 whole entry): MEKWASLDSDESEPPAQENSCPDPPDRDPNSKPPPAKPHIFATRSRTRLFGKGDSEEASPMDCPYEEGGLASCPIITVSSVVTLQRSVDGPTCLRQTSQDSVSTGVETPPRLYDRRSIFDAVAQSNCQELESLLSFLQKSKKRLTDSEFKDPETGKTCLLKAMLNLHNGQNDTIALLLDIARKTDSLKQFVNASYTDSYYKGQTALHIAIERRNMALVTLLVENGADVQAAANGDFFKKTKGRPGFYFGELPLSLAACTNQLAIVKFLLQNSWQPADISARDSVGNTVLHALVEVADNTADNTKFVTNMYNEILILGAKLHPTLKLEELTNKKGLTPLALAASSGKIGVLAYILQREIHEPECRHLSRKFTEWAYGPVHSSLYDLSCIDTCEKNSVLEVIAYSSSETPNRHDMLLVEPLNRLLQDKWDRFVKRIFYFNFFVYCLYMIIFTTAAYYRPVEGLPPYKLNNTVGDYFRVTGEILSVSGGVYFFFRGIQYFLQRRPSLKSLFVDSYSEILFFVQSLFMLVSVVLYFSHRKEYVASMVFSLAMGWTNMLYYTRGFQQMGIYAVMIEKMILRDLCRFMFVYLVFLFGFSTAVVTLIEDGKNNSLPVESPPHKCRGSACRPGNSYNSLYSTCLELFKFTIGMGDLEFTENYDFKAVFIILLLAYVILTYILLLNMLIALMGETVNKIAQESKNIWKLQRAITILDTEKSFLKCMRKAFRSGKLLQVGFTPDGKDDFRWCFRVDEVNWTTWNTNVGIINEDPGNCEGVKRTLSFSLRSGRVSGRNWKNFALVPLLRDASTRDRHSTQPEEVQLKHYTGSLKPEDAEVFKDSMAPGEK

[11] = 1.3 mg/kg s.c. 30 minutes prior to P10 acetic acid, tested at 8 weeks, 40, 60 and 80 mm Hg, vs vehicle

Sequence of TRPV1 (Homo sapiens, UniProt Q8NER1) (Q8NER1 whole entry, species assumed): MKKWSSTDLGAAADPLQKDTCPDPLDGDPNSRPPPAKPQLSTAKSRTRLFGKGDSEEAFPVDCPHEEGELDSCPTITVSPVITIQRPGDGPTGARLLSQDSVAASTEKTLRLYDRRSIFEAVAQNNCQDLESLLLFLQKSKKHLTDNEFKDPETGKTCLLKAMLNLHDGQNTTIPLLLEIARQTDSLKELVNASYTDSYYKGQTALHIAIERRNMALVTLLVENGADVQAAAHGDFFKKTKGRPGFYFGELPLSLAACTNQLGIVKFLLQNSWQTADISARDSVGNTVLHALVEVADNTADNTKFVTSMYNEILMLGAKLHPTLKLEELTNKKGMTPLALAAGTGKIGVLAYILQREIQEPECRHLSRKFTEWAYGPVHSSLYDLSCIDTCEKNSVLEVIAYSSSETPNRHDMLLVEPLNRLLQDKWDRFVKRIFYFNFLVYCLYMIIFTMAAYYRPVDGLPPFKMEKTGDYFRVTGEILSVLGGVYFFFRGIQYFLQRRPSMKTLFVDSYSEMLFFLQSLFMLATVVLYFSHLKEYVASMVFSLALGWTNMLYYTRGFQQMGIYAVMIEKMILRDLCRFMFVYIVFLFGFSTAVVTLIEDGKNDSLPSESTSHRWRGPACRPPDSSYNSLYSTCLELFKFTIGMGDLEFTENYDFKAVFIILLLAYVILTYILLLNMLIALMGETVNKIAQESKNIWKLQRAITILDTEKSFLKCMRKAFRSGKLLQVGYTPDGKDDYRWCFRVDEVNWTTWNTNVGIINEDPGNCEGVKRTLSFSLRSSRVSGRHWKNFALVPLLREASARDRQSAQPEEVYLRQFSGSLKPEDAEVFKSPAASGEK

C=C(C)[C@]12C[C@@H](C)[C@@]34O[C@](Cc5ccccc5)(O[C@@H]1[C@@H]3C=C(COC(=O)Cc1cc(I)c(O)c(OC)c1)C[C@]1(O)C(=O)C(C)=C[C@@H]41)O2 [I-RTX, 5′Iodoresiniferatoxin]
potency and selectivity compared with capsezapine (TRPV1 [1]): more potent and selective antagonists | blocking TRPV1-mediated effects in several animal models in vivo (TRPV1 [2]): effective in blocking TRPV1-mediated effects | sensitivity to colorectal distention by AWR grade (TRPV1 [3]; 2 mg/kg s.c. 24 hours and 30 minutes prior to P10 acetic acid, 8 weeks, 10, 20 and 40 mm Hg): reduced sensitivity | sensitivity to colorectal distention by AWR grade (TRPV1 [3]; 2 mg/kg s.c. 24 hours and 30 minutes prior to P10 acetic acid, 8 weeks, 10, 20 and 40 mm Hg, listed as 1-RTX): significant decreased sensitivity | sensitivity to colorectal distention by EMG (TRPV1 [3]; 2 mg/kg s.c. 24 hours and 30 minutes prior to P10 acetic acid, 8 weeks, 20, 40, 60 and 80 mm Hg): reduced sensitivity | sensitivity to colorectal distention by EMG (TRPV1 [3]; 2 mg/kg s.c. 24 hours and 30 minutes prior to P10 acetic acid, 8 weeks, 20, 40, 60 and 80 mm Hg, listed as 1-RTX): significant decreased sensitivity

COc1cccc(NC(=O)C=Cc2ccc(Cl)cc2)c1 [SB-366791, N-(3-Methoxyphenyl)-4-chlorocinnamide]
acid-mediated activation (TRPV1 [1]): blocks acid-mediated activation | potency and selectivity compared with capsezapine (TRPV1 [1]): more potent and selective antagonists | Ki (TRPV1 [1]; competitive antagonist of capsaicin): 18 nM | effect in in vitro binding assays against 50 receptors of various types [4]: little or no effect | EMG activity in response to colorectal distention (TRPV1 [3]; [11]): significantly less | sensitivity to colorectal distention by AWR grade (TRPV1 [3]; [11]): significant decreases in sensitivity to colorectal distention | sensitivity to colorectal distention by AWR grade (TRPV1 [3]; 2.6 mg/kg s.c. 24 hours and 30 minutes prior to P10 acetic acid, 8 weeks, 10, 20, 40 and 60 mm Hg): reduced sensitivity; also recorded: significantly decreased sensitivity | sensitivity to colorectal distention by EMG (TRPV1 [3]; 2.6 mg/kg s.c. 24 hours and 30 minutes prior to P10 acetic acid, 8 weeks, 20, 40 and 60 mm Hg): reduced sensitivity; also recorded: significantly decreased sensitivity | AWR response to colorectal distention, P10 saline treated adult rats (TRPV1 [5]; 10-80 mm Hg): no significant effect | AWR response to colorectal distention, P10 acetic acid treated adult rats (TRPV1 [5]; 10 and 80 mm Hg): No significant differences | AWR response to colorectal distention, P10 acetic acid treated adult rats (TRPV1 [5]; 20 mm Hg): trend towards significance | AWR response to colorectal distention, P10 acetic acid treated adult rats (TRPV1 [5]; 40 and 60 mm Hg, vs vehicle): reduced sensitivity to CRD | AWR response to colorectal distention, P10 acetic acid treated adult rats (TRPV1 [5]; 40 and 60 mm Hg, vs vehicle, listed as SB-366,791): significant decline | effect on hyperpolarization activated current [6]: little or no effect | effect on voltage-gated Ca++ currents [6]: little or no effect | effects on AMPA or NMDA mediated hippocampal synaptic transmission [7]: no effects | capsaicin effects on thermoregulation (TRPV1 [8]): block capsaicin effects on thermoregulation

Oc1cc2c(cc1O)CN(C(=S)NCCc1ccc(Cl)cc1)CCC2 [capsazepine]
calcium channel block (calcium channels): blocks calcium channels at high concentrations | pharmacokinetic properties [9]: poor pharmacokinetic properties | colon afferent fiber responses to stretch (TRPV1 [10]): inhibited | jejunal afferent responses to acid (TRPV1 [10]): inhibited
